Earlier results on 21 substances are cited in patent publication US8642009B2, “Diagnostic system for the detection of skin cancer” (priority 2005, dated 2014).

One series deals with αvβ3 (Homo sapiens, UniProt P05106+P06756).
In the next series the test system is M21 human melanoma. Particulars: M21 tumour model, 120 min p.i.
In series [1] the test system is OVCAR-3 ovarian carcinoma. Conditions: OVCAR-3 tumour model, 120 min p.i.; for Tumour/blood: estimated from graphical presentations.
The test system of a further series is U87MG human glioblastoma. Conditions: U87MG tumour model.
The subject of series [2] is Osteo murine osteosarcoma. Particulars: Osteo tumour model.
Series [3] relates to MDA-MB human breast cancer. Particulars: MDA-MB tumour model, 120 min p.i.
Series [4] deals with CA20948 rat pancreatic tumour. Conditions: CA20948 tumour model, 4 h p.i.
The test system of series [5] is ACHN human renal adenocarcinoma. Conditions: in vivo.
Series [6] has as its system DLD-1 human colon adenocarcinoma. Conditions: DLD-1 tumour model, 60 min p.i.
Setting [7] is: 4 h p.i., estimated from graphical presentations.

Read-outs that look alike come from different tables or passages of the source. Marks after values point to notes of the source that are not given here.

Chain of αvβ3 (P06756 31-889 limits assumed): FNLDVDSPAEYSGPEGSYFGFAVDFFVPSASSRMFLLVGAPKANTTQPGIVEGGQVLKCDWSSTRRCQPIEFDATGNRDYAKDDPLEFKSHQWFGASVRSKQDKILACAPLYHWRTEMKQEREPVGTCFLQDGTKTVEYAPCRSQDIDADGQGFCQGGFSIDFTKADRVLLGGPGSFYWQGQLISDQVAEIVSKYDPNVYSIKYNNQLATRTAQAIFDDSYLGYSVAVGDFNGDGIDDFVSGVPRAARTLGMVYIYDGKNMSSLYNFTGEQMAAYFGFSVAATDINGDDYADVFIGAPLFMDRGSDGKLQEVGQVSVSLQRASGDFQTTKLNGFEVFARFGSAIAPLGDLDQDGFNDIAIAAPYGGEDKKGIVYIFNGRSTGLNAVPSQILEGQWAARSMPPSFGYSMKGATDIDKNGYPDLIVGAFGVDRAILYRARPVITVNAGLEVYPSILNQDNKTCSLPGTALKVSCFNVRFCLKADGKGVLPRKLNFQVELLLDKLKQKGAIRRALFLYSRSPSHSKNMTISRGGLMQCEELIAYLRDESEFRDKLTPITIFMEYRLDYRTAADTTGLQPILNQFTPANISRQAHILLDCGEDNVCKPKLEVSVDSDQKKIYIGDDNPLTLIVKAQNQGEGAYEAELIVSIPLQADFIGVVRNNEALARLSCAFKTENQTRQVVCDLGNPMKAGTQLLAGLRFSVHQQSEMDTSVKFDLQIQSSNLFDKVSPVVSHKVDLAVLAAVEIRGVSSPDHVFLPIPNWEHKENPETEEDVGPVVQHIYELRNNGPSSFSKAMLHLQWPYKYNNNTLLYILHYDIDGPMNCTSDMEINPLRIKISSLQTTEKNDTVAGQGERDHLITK
Chain of αvβ3 (P06756 891-1048 partner limits assumed): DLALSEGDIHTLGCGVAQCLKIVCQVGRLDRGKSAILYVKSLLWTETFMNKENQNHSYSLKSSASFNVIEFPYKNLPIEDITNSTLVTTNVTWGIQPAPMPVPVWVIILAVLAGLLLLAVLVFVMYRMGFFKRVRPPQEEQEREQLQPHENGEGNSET
Chain of αvβ3 (P05106 27-788): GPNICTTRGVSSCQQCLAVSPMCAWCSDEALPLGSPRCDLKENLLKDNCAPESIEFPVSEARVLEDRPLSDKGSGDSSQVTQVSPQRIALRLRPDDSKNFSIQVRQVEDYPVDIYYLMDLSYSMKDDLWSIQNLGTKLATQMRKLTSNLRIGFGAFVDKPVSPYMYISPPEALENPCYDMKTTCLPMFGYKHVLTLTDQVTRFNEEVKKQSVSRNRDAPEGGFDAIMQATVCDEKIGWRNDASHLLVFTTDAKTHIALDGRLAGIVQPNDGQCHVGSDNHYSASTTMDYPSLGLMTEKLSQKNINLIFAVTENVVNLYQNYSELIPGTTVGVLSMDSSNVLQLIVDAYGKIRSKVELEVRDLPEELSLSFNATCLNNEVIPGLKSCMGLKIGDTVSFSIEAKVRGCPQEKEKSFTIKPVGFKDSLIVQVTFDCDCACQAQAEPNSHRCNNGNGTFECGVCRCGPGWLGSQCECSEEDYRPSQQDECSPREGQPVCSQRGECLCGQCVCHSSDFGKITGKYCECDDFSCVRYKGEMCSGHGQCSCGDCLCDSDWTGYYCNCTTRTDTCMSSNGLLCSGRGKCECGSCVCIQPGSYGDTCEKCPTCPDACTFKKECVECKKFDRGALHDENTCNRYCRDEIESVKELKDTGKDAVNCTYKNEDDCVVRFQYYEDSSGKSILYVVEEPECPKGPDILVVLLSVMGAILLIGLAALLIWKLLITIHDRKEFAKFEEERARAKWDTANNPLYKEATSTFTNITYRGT

Take ((c(RGDfE)HEG)2-K)2-Dpr: the IC50 on αvβ3 was 0.2 nM. In the series on M21 human melanoma, the Tumour uptake is on record as 1.7 ± 0.1^b % ID/g, the Tumour/blood is on record as 21.3 and the Tumour/muscle is reported as 23.1.
As for (c(RGDfE)HEG)2-K-Dpr, the IC50 at αvβ3 was 3 nM. Moreover, in the series with M21 human melanoma, the Tumour uptake is on record as 1.6 ± 0.1^b % ID/g, the Tumour/blood is given as 12.4 and the Tumour/muscle was 14.2.
In the case of DKCK-RGD, in the series with M21 human melanoma, the Tumour uptake is 1.1 ± 0.1^b % ID/g, the Tumour/blood is 9.7 and the Tumour/muscle is 8.1.
Turning to DOTA-E-[c(RGDfK])2, in series [1], the Tumour uptake is reported as 7.5 ± 1.5^b % ID/g and the Tumour/blood was 40^g ^.
For DOTA-E[E-c(RGDyK)z]2, the Tumour uptake in the series with U87MG human glioblastoma (120 min p.i.) was 7.6 ± 0.6^b % ID/g.
On to DOTA-PEG-c(RGDyK), for which, in the series with U87MG human glioblastoma (4 h p.i.), the Tumour uptake is 1.6 ± 0.2^d % ID/g. For the same substance, in the series with U87MG human glioblastoma (setting [7]), the Tumour/blood is recorded as 80^g ^ and the Tumour/muscle is on record as 16^g ^.
On to DOTA-RGD, for which, in series [2] (60 min p.i.), the Tumour uptake is 1.1 ± 0.04^c % ID/g, the Tumour/blood is on record as 11.8 and the Tumour/muscle was 2.8.
In the case of DOTA-c(RGDyK), in [3], the Tumour uptake was 1.4 ± 0.1^b % ID/g, the Tumour/blood is 6.9 and the Tumour/muscle is 6.
Turning to DTPA-RGD, in [4], the Tumour uptake is 0.1 ± 0.02^d % ID/g, the Tumour/blood was 9.2 and the Tumour/muscle is given as 7.9.
Consider FB-c(RGDyK), for which, in series [3], the Tumour uptake is 1.0 ± 0.3^b % ID/g, the Tumour/blood is listed as 12.2 and the Tumour/muscle is reported as 5.8.
As to FP-E-c(RGDyK)2, the Tumour uptake in series [3] is listed as 4^b,g % ID/g.
In the case of FP-PEG-c(RGDyK), in the series with U87MG human glioblastoma (120 min p.i.), the Tumour uptake is 2.6 ± 0.1^b % ID/g, the Tumour/blood was 18.4 and the Tumour/muscle was 25.6.
Take HYNIC-E-[c(RGDfK])2: in series [1], the Tumour uptake is listed as 5.8 ± 0.5^b % ID/g and the Tumour/blood is 10^g ^.
Turning to RGD, the IC50 on αvβ3 is 40 nM. Moreover, in the series on M21 human melanoma, the Tumour uptake is 1.8 ± 0.3^b % ID/g, the Tumour/blood is given as 7.9 and the Tumour/muscle was 6.2.
Regarding RGD-4C, in series [5], the Tumour/blood is given as 1.6 and the Tumour/muscle is 2.6.
As to c(RGDfE)HEG-Dpr, at αvβ3 (IC50 value for the corresponding compound), the IC50 is 20 nM. In addition, in the series on M21 human melanoma, the Tumour uptake is 0.5 ± 0.1^b % ID/g, the Tumour/blood is on record as 12.4 and the Tumour/muscle is listed as 13.2.
As for c(RGDfMe V), in series [6], the Tumour uptake is on record as 0.9 ± 0.1^c % ID/g, the Tumour/blood was 5.2 and the Tumour/muscle was 2.7.
On to c(RGDfY), for which the IC50 at αvβ3 was 40 nM. In addition, in series [2] (60 min p.i.), the Tumour uptake is 0.4 ± 0.1^c % ID/g, the Tumour/blood is listed as 1.1 and the Tumour/muscle was 2.7.
With c(RGDy V), the IC50 on αvβ3 was 10 nM. For the same substance, in series [2] (120 min p.i.), the Tumour uptake is listed as 1.5 ± 0.2^b % ID/g, the Tumour/blood is listed as 8.6 and the Tumour/muscle is 4.9.
Regarding c(RGDyK), in series [3], the Tumour uptake is listed as 3.0 ± 0.1^b % ID/g, the Tumour/blood is 20.2 and the Tumour/muscle is 4.7.
Regarding mPEG-c(RGDyK), in the series with U87MG human glioblastoma (120 min p.i.), the Tumour uptake was 5.1 ± 0.3^b % ID/g and the Tumour/blood is 85.
